Results reported in ChEMBL document CHEMBL5528082 (J Med Chem, 2024).
pIC50: −log10 of the molar value. Values after ≈ are worked out from the molar mass of the structure shown.

What was measured:
[1] = tested on: Staphylococcus aureus; assay: Antibacterial activity against Staphylococcus aureus ATCC 25923 incubated for 24 hrs by CLSI based broth microdilution assay; format: functional
[2] = tested on: Staphylococcus aureus; assay: Antibacterial activity against Staphylococcus aureus USA 300 incubated for 24 hrs by CLSI based broth microdilution assay; format: functional
[3] = tested on: Staphylococcus aureus; assay: Antibacterial activity against TMP-resistant Staphylococcus aureus BHKS 227 incubated for 24 hrs by CLSI based broth microdilution assay; format: functional
[4] = tested on: Staphylococcus aureus; assay: Antibacterial activity against TMP-resistant Staphylococcus aureus BHKS 721 incubated for 24 hrs by CLSI based broth microdilution assay; format: functional
[5] = tested on: Staphylococcus aureus; assay: Antibacterial activity against TMP-resistant Staphylococcus aureus BHKS 723 incubated for 24 hrs by CLSI based broth microdilution assay; format: functional
[6] = Cytotoxicity against HEK293 cells assessed as inhibition rate of cell growth at 100 uM incubated for 24 hrs by CCK8 assay relative to control; format: toxicity, cell-based; settings: human
[7] = Cytotoxicity against human NCM460 cells assessed as inhibition rate of cell growth at 100 uM incubated for 24 hrs by CCK8 assay relative to control; format: toxicity, cell-based
[8] = tested on: Dihydrofolate reductase (Staphylococcus aureus); settings: dose 100.0 nM
[9] = biological target: Dihydrofolate reductase (Staphylococcus aureus, UniProt P0A017); assay: Inhibition of Staphylococcus aureus DHFR expressed in Escherichia coli BL21 (DE3) using DHF as substrate preincubated for 10 mins followed by substrate addition measured for 10 mins in presence of NADPH by spectrophotometry
Sequence of Dihydrofolate reductase (P0A017 whole entry): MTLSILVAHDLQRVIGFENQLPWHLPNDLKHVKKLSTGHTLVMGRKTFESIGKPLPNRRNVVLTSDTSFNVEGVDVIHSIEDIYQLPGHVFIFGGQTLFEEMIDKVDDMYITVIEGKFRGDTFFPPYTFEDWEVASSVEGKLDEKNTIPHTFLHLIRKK

Row | Compound | MIC [1] | MIC [2] | MIC [3] | MIC [4] | MIC [5] | inhibition at 24 h, 100 µM [6] | inhibition at 24 h, 100 µM [7] | inhibition [8] | pIC50 [9]
1 | CC(C)c1cc(OCC2CCCCC2)c(I)cc1Oc1cnc(N)nc1N | 0.5 µg/mL (≈ 1.04 µM) | 0.5 µg/mL (≈ 1.04 µM) | > 32 µg/mL | 32 µg/mL (≈ 66.3 µM) | > 32 µg/mL | 36.7% | 65% | 59.8% | –
2 | COc1cc(C(C)C)c(Oc2cnc(N)nc2N)cc1-c1cccc(Cl)c1 | 0.063 µg/mL (≈ 0.164 µM) | 0.063 µg/mL (≈ 0.164 µM) | 1 µg/mL (≈ 2.6 µM) | 4 µg/mL (≈ 10.4 µM) | 4 µg/mL (≈ 10.4 µM) | 29.3% | 18.8% | 67.2% | –
3 | CC(C)c1cc(OCC2CC2)c(-c2ccc(OC(F)(F)F)cc2)cc1Oc1cnc(N)nc1N | 0.5 µg/mL (≈ 1.05 µM) | 0.5 µg/mL (≈ 1.05 µM) | 4 µg/mL (≈ 8.43 µM) | 2 µg/mL (≈ 4.22 µM) | 4 µg/mL (≈ 8.43 µM) | 22.9% | 31.3% | 78.9% | –
4 | COc1cc(C(C)C)c(Oc2cnc(N)nc2N)cc1-c1ccccc1 | 0.5 µg/mL (≈ 1.43 µM) | 0.25 µg/mL (≈ 0.713 µM) | 2 µg/mL (≈ 5.71 µM) | 32 µg/mL (≈ 91.3 µM) | 32 µg/mL (≈ 91.3 µM) | 49.2% | 74.2% | – | –
5 | COc1cccc(OC)c1C(=O)N[C@@H]1C(=O)N2[C@@H]1SC(C)(C)[C@@H]2C(=O)O [METHICILLIN] | 1 µg/mL (≈ 2.63 µM) | 128 µg/mL (≈ 336 µM) | 64 µg/mL (≈ 168 µM) | 1 µg/mL (≈ 2.63 µM) | 1 µg/mL (≈ 2.63 µM) | – | – | – | –
6 | CCc1cc(Oc2cnc(N)nc2N)c(C(C)C)cc1OC | 0.25 µg/mL (≈ 0.827 µM) | 0.125 µg/mL (≈ 0.413 µM) | 2 µg/mL (≈ 6.61 µM) | 16 µg/mL (≈ 52.9 µM) | 16 µg/mL (≈ 52.9 µM) | 38.8% | 8.5% | – | 7.61
7 | COc1cc(C(C)C)c(Oc2cnc(N)nc2N)cc1-c1ccc(Cl)c(Cl)c1 | 0.5 µg/mL (≈ 1.19 µM) | 3 µg/mL (≈ 7.15 µM) | 2 µg/mL (≈ 4.77 µM) | 8 µg/mL (≈ 19.1 µM) | 8 µg/mL (≈ 19.1 µM) | 41% | 34.1% | 60.8% | –
8 | COc1cc(C(C)C)c(Oc2cnc(N)nc2N)cc1-c1ccc(C(F)(F)F)c(Cl)c1 | 1 µg/mL (≈ 2.21 µM) | 2 µg/mL (≈ 4.42 µM) | 4 µg/mL (≈ 8.83 µM) | 4 µg/mL (≈ 8.83 µM) | 4 µg/mL (≈ 8.83 µM) | 42.1% | 41.9% | 65.7% | –
9 | COc1cc(C(C)C)c(Oc2cnc(N)nc2N)cc1-c1ccncc1 | 1 µg/mL (≈ 2.85 µM) | 1 µg/mL (≈ 2.85 µM) | 4 µg/mL (≈ 11.4 µM) | > 32 µg/mL | 32 µg/mL (≈ 91.1 µM) | 2.09% | 6.02% | 37.2% | –
10 | CCCCOc1cc(C(C)C)c(Oc2cnc(N)nc2N)cc1-c1ccc(C(C)C)cc1 | 1 µg/mL (≈ 2.3 µM) | 2 µg/mL (≈ 4.6 µM) | 8 µg/mL (≈ 18.4 µM) | 4 µg/mL (≈ 9.2 µM) | 2 µg/mL (≈ 4.6 µM) | 46.6% | 40.9% | 64% | –
11 | COc1cc(C(C)C)c(Oc2cnc(N)nc2N)cc1-c1cc(C)cc(C)c1 | 0.5 µg/mL (≈ 1.32 µM) | 0.5 µg/mL (≈ 1.32 µM) | 2 µg/mL (≈ 5.28 µM) | 8 µg/mL (≈ 21.1 µM) | 16 µg/mL (≈ 42.3 µM) | 29.7% | 68.8% | 64.6% | –
12 | CCOc1cc(C(C)C)c(Oc2cnc(N)nc2N)cc1I | 0.016 µg/mL (≈ 0.0386 µM) | 0.016 µg/mL (≈ 0.0386 µM) | 0.25 µg/mL (≈ 0.604 µM) | 4 µg/mL (≈ 9.66 µM) | 4 µg/mL (≈ 9.66 µM) | 57.9% | 13.9% | 42.6% | –
13 | CCCCOc1cc(C(C)C)c(Oc2cnc(N)nc2N)cc1-c1cc(Cl)cc(Cl)c1 | 2 µg/mL (≈ 4.33 µM) | 1 µg/mL (≈ 2.17 µM) | 8 µg/mL (≈ 17.3 µM) | 8 µg/mL (≈ 17.3 µM) | 8 µg/mL (≈ 17.3 µM) | 43% | 42.5% | 75% | –
14 | COc1cc(OC)cc(-c2cc(Oc3cnc(N)nc3N)c(C(C)C)cc2OC)c1 | 2 µg/mL (≈ 4.87 µM) | 2 µg/mL (≈ 4.87 µM) | 8 µg/mL (≈ 19.5 µM) | 32 µg/mL (≈ 78 µM) | 32 µg/mL (≈ 78 µM) | 29.7% | 66.8% | 40.5% | –
15 | COc1cc(C(C)C)c(Oc2cnc(N)nc2N)cc1-c1ccc(-c2ccccc2)cc1 | 0.5 µg/mL (≈ 1.17 µM) | 0.5 µg/mL (≈ 1.17 µM) | 2 µg/mL (≈ 4.69 µM) | 4 µg/mL (≈ 9.38 µM) | 4 µg/mL (≈ 9.38 µM) | 31.5% | 66% | 26.8% | –
16 | CC(C)c1cc(OCC2CC2)c(-c2cc(Cl)cc(Cl)c2)cc1Oc1cnc(N)nc1N | 0.5 µg/mL (≈ 1.09 µM) | 0.5 µg/mL (≈ 1.09 µM) | 2 µg/mL (≈ 4.35 µM) | 2 µg/mL (≈ 4.35 µM) | 4 µg/mL (≈ 8.71 µM) | 27.5% | 35.8% | 89.2% | –
17 | COc1cc(C(C)C)c(Oc2cnc(NC(C)=O)nc2NC(C)=O)cc1I | > 32 µg/mL | > 32 µg/mL | > 32 µg/mL | > 32 µg/mL | > 32 µg/mL | 26.7% | 18.2% | 32.6% | –
